Test results taken from patent publication US6133297A, “Thrombin inhibitors” (Merck & Co., Inc., priority 1998, dated 2000).
Non-standard residues stand in square brackets, D forms with d. Residues, ends and D or L forms follow the SMILES beside them. *: point of attachment. AFC = O=c1cc(C(F)(F)F)c2ccc(N*)cc2o1; pNA = O=[N+]([O-])c1ccc(N*)cc1; Cbz = O=C(OCc1ccccc1)*; Sar = CNCC(=O)O

Columns and labels:
human a-thrombin = target: T1, human a-thrombin (Homo sapiens, UniProt P00734); assay: In vitro assay for determining proteinase inhibition (thrombin Ki); format: biochemical; conditions: 25° C., 0.05 M TRIS buffer pH 7.4, 0.15 M NaCl, 0.1% PEG
T1 construct: human a-thrombin
Method: In vitro Assay for Determining Proteinase Inhibition
(§1) Assays of human a-thrombin and human trypsin were performed at 25° C. in 0.05 M TRIS buffer pH 7.4, 0.15 M NaCl, 0.1% PEG. Trypsin assays also contained 1 mM CaCl2.
(§2) In certain studies with potent inhibitors (Ki <10 nM) where the degree of inhibition of thrombin was high, a more sensitive activity assay was employed. […] Concentrations of stock solutions of Z-GPR-afc were determined from measurements of absorbance at 380 nm of the 7-amino-4-trifluoromethylcoumarin produced upon complete hydrolysis of an aliquot of the stock solution by thrombin.
Activity assays were performed by diluting a stock solution of substrate at least tenfold to a final concentration <0.5 Km into a solution containing enzyme or enzyme equilibrated with inhibitor. Times required to achieve equilibration between enzyme and inhibitor were determined in control experiments. Initial velocities of product formation in the absence (V0) or presence of inhibitor (Vi) were measured. Assuming competitive inhibition, and that unity is negligible compared Km /[S], […] (where [S], [I], and e respectively represent the total concentrations, of substrate, inhibitor and enzyme), the equilibrium constant (Ki) for dissociation of the inhibitor from the enzyme can be obtained from the dependence of V0 /Vi on [I] shown in equation 1.

human trypsin = assay: Hydrolysis of p-nitroanilide substrate by human trypsin (405 nm); format: biochemical; conditions: substrate for human trypsin, 25° C., pH 7.4, 1 mM CaCl2
Method: as §1

thrombin = assay: Thrombin catalyzed hydrolysis of fluorogenic substrate (fluorescence at 500 nm); format: biochemical, human; conditions: fluorogenic substrate for thrombin, excitation at 400 nm
Method: as §1, §2

Row | Ki (human a-thrombin) | SMILES | also measured
1 | < 1 µM | O=C(CNS(=O)(=O)Cc1ccc(Cl)c(Cl)c1)N[C@H](CCNc1ccncc1)Cc1ccccc1 [Bn 1 3,4-di-Cl--BnSO2 -- H] | 
2 | < 1 µM | O=C(CNS(=O)(=O)Cc1ccc(Cl)cc1)N[C@H](CCNc1ccncc1)Cc1ccccc1 [Bn 1 4-Cl--BnSO2 -- H] | 
3 | < 1 µM | C[C@H](NS(=O)(=O)Cc1ccccc1)C(=O)N[C@H](CCNc1ccncc1)Cc1ccccc1 [Bn 1 BnSO2 -- (S)-CH3] | 
4 | < 1 µM | O=C(CNS(=O)(=O)c1ccc(Cl)cc1)N[C@H](CCNc1ccncc1)Cc1ccccc1 [Bn 1 4-Cl--PhSO2 -- H] | 
5 | < 1 µM | O=C(CNS(=O)(=O)Cc1ccc(C(F)(F)F)cc1)N[C@H](CCNc1ccncc1)Cc1ccccc1 [Bn 1 4-CF3 --BnSO2 -- H] | 
6 | > 1 µM | C[C@@H](NS(=O)(=O)Cc1ccccc1)C(=O)N[C@H](CCNc1ccncc1)Cc1ccccc1 [Bn 1 BnSO2 -- (R)-CH3] | 
7 | < 1 µM | NC(Cc1ccc(Cl)cc1)C(=O)N[C@H](CCNc1ccncc1)Cc1ccccc1 (some centres unmarked) [Bn 1 H 4-ClBn--] | 
8 | < 1 µM | O=C(CNS(=O)(=O)c1ccc(Cl)c(Cl)c1)N[C@H](CCNc1ccncc1)Cc1ccccc1 [Bn 1 3,4-di-Cl--PhSO2 -- H] | 

The next lines start with the compound.

Row | SMILES | Ki (human a-thrombin) | also measured
9 | CC(C)[C@@H](CCNc1ccncc1)NC(=O)CNS(=O)(=O)Cc1ccccc1 [(CH3)2 CH2 -- 1 BnSO2 -- H] | > 1 µM | 
10 | COc1cc(C)c(S(=O)(=O)NCC(=O)N[C@H](CCNc2ccncc2)Cc2ccccc2)c(C)c1C [Bn 1 4-OCH3-2,3,6-MePhSO2 -- H] | < 1 µM | 
11 | O=C(CNS(=O)(=O)c1ccccc1)N[C@H](CNc1ccncc1)Cc1ccccc1 [Bn 0 PhSO2 -- H] | > 1 µM | 
12 | O=C(N[C@H](CCNc1ccncc1)Cc1ccccc1)[C@H](CO)NS(=O)(=O)c1ccc(Cl)c(Cl)c1 [Bn 1 3,4-di-Cl--PhSO2 -- (S)-CH2 OH] | < 1 µM | 
13 | CC(C)(C)OC(=O)NCC(=O)N[C@H](CNc1ccncc1)Cc1ccccc1 [Bn 0 Boc H] | > 1 µM | 
14 | O=C(CNS(=O)(=O)c1ccccc1)N[C@H](CNc1ccncc1)CC1CCCCC1 [c-hexylCH2 -- 0 PhSO2 -- H] | > 1 µM | 
15 | O=C(CNS(=O)(=O)C=Cc1ccccc1)N[C@H](CCNc1ccncc1)Cc1ccccc1 [Bn 1 PhCH=CHSO2 -- H] | < 1 µM | 
16 | CNCC(=O)N1CCC[C@H]1C(=O)N[C@@H](CCCNC(=N)N)C(=O)Nc1ccc([N+](=O)[O-])cc1 [sar-PR-pna, sarcosine-Pro-Arg-p-nitroanilide] (H-[Sar]-Pro-Arg-pNA) |  | Km (human trypsin): 59 µM
17 | N=C(N)NCCC[C@H](NC(=O)[C@@H]1CCCN1C(=O)CNC(=O)OCc1ccccc1)C(=O)Nc1ccc2c(C(F)(F)F)cc(=O)oc2c1 [Z-GPR-afc, Cbz-Gly-Pro-Arg-7-amino-4-trifluoromethylcoumarin] (Cbz-Gly-Pro-Arg-{AFC}) |  | Km (thrombin): 27 µM
18 | CSCC[C@H](NS(=O)(=O)Cc1ccccc1)C(=O)N[C@H](CCNc1ccncc1)Cc1ccccc1 [Bn 1 BnSO2 -- (S)-CH2 CH2 SCH3] | < 1 µM | 
19 | CS(=O)(=O)CC[C@H](NS(=O)(=O)Cc1ccccc1)C(=O)N[C@H](CCNc1ccncc1)Cc1ccccc1 [Bn 1 BnSO2 -- (S)- CH2 CH2 SO2 CH3] | < 1 µM | 
20 | O=C(CNS(=O)(=O)c1ccc(Cl)cc1)N[C@H](CNc1ccncc1)Cc1ccccc1 [Bn 0 4-ClPhSO2 -- H] | > 1 µM | 
21 | O=C(CNS(=O)(=O)c1ccc2ccccc2c1)N[C@H](CCNc1ccncc1)Cc1ccccc1 [Bn 1 2-naphthSO2 -- H] | < 1 µM | 
22 | CC(C)[C@@H](CCNc1ccncc1)NC(=O)CNS(=O)(=O)c1ccc(Cl)c(Cl)c1 [(CH3)2 CH2 -- 1 3,4-di-Cl--PhSO2 -- H] | < 1 µM | 
23 | O=C(CNS(=O)(=O)Cc1ccccc1)N[C@H](CCNc1ccncc1)Cc1ccccc1 [Bn 1 BnSO2 -- H] | < 1 µM | 
